Measurements published in patent US10633407B2, “14-membered ketolides and methods of their preparation and use” (President and Fellows of Harvard College, priority 2014, dated 2020).
Read-outs that look alike come from different tables or passages of the source.

Legend:
Assay in all cases: CLSI broth dilution MIC determination
Format in all cases: cell-based
[1] = tested on: E. faecalis ATCC 29212
[2] = tested on: P. aeruginosa ATCC 27853
[3] = tested on: A. baumannii IMP-4
[4] = tested on: K. pneumoniae KPC-2
[5] = tested on: K. pneumoniae ATCC 10031
[6] = tested on: E. faecalis Vancomycin-resistant
[7] = tested on: P. aeruginosa HPA101-1477
[8] = tested on: H. influenzae Erythro >4, Azithro 1
Excerpt: MIC data was collected for the novel macrolides that this platform has produced against over 21 unique strains of B. subtilis, E. coli, S. aureus, S. pneumoniae, and H. influenzae, including several multidrug-resistant strains, with a special focus on macrolide resistant mechanisms (vide supra). […] CLSI standard procedures for broth dilution MIC determination were used. […] These genotypes can be constitutive or inducible.

[9] = tested on: A. baumannii chromosomal class C
[10] = tested on: E. coli NDM-1
How it was run: (§1)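 The lowest inhibitory concentration was found by broth dilution done to CLSI standards. Resistance genotypes on the panel can be constitutive or inducible, and azithromycin and solithromycin accompany many tests as reference macrolides.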

[11] = tested on: E. coli TEM-1
How it was run: as §1

[12] = tested on: S. pneumoniae erm B + mef A genotype
How it was run: as §1

[13] = tested on: K. pneumoniae TEM-10
[14] = tested on: S. pneumoniae mef A genotype (second strain so labelled)
How it was run: as §1

[15] = tested on: S. aureus USA600, GISA
How it was run: as §1

[16] = tested on: S. aureus MRSA: USA100
How it was run: as §1

[17] = tested on: E. coli CTX-M-14
How it was run: as §1

[18] = tested on: S. aureus MRSA: USA300
How it was run: as §1

[19] = tested on: S. aureus erm A genotype
How it was run: as §1

[20] = tested on: S. aureus ATCC 29213
How it was run: as §1

[21] = tested on: E. coli ATCC 25922
How it was run: as §1

[22] = tested on: H. influenzae ATCC49247
How it was run: as §1

[23] = tested on: S. pneumoniae erm B + tet(M,O) genotype; conditions: Streptococcus pneumoniae
How it was run: as §1

[24] = tested on: S. pneumoniae ATCC 49619
How it was run: as §1

[25] = tested on: A. baumannii ATCC 19606
[26] = tested on: S. pyogenes ATCC 19615
[27] = tested on: K. pneumoniae SHV-12
[28] = tested on: A. baumannii imipenem-resistant
[29] = tested on: S. pyogenes Macrolide-resistant
[30] = tested on: E. coli MP-9 ATCC25922:tolC; conditions: Escherichia coli, ATCC25922
How it was run: as §1

[31] = E. faecalis ATCC 29212, Gram-positive
[32] = Enterococcus faecalis, ATCC29212, E. faecalis ATCC 29212 (MP-24), read-out: MIC
[33] = P. aeruginosa ATCC 27853, Gram-negative
[34] = Pseudomonas aeruginosa, ATCC27853, P. aeruginosa ATCC 27853 (MP-3), read-out: MIC
[35] = Acinetobacter baumannii, IMP4, read-out: MIC
[36] = Klebsiella pneumoniae, KPC2, read-out: MIC
[37] = K. pneumoniae ATCC 10031, Gram-negative
[38] = Klebsiella pneumoniae, ATCC10031, K. pneumoniae ATCC 10031 (MP-14), read-out: MIC
[39] = E. faecalis Vancomycin-resistant, Gram-positive
[40] = Pseudomonas aeruginosa, HPA1011477, read-out: MIC
[41] = H. influenzae Erythro >4, Azithro 1, Gram-negative
[42] = Haemophilus influenzae, read-out: MIC
[43] = Acinetobacter baumannii, read-out: MIC
[44] = Escherichia coli, NDM1, read-out: MIC
[45] = Klebsiella pneumoniae, TEM10, read-out: MIC
[46] = Streptococcus pneumoniae, second strain (MP-627 UNT-039), read-out: MIC
[47] = S. aureus USA600, GISA, Gram-positive
[48] = Staphylococcus aureus, S. aureus USA600, GISA (MP-619 UNT-120), read-out: MIC
[49] = S. aureus MRSA: USA100, Gram-positive
[50] = Staphylococcus aureus, S. aureus MRSA: USA100 (MP-618 UNT-096), read-out: MIC
[51] = Escherichia coli, CTXM14, read-out: MIC
[52] = S. aureus MRSA: USA300, Gram-positive
[53] = Staphylococcus aureus, S. aureus MRSA: USA300 (MP-549, msr(a)), read-out: MIC
[54] = S. aureus erm A genotype, Gram-positive
[55] = Staphylococcus aureus, S. aureus erm A genotype (MP-620 UNT-146), read-out: MIC
[56] = S. aureus ATCC 29213, Gram-positive
[57] = E. coli ATCC 25922, Gram-negative
[58] = Escherichia coli, ATCC25922, E. coli ATCC 25922 (MP-4), read-out: MIC
[59] = S. pneumoniae ATCC 49619, Gram-positive
[60] = A. baumannii ATCC 19606, Gram-negative
[61] = Acinetobacter baumannii, ATCC19606, A. baumannii ATCC 19606 (MP-15), read-out: MIC
[62] = S. pyogenes ATCC 19615, Gram-positive
[63] = Klebsiella pneumoniae, SHV12, read-out: MIC
[64] = S. pyogenes Macrolide-resistant, Gram-positive

Measured: MIC

CC[C@H]1OC(=O)[C@@](C)(F)C(=O)[C@H](C)[C@@H](O[C@@H]2OC(C)CC(N(C)C)C2O)[C@](C)(OC)C[C@@H](C)C(=O)[C@H](C)[C@H]2N(CC#CCn3cc(-c4cccc(N)c4)nn3)C(=O)O[C@]12C (stereo partly shown) [FSM-100426]
< 0.0312 µg/mL: [1]; [31] | [1]; [32] | [12]; Streptococcus pneumoniae | [14]; Gram-positive | [14]; [46] | [23] | [24]; [59] | [24]; Streptococcus pneumoniae, ATCC49619, S. pneumoniae ATCC 49619 (MP-21), read-out: MIC | [26]; [62] | [26]; Streptococcus pyogenes, ATCC19615, S. pyogenes ATCC 19615 (MP-19), read-out: MIC | [29]; [64] | [29]; Streptococcus pyogenes, S. pyogenes Macrolide-resistant (MP-625 UNT-014), read-out: MIC
0.5 µg/mL: [18]; [52] | [18]; [53]
32 µg/mL: [9]; [43] | [9]; Gram-negative | [15]; [47] | [15]; [48] | [21]; [57] | [21]; [58]
4 µg/mL: [8]; [41] | [8]; [42] | [22]; Gram-negative | [22]; [42]
8 µg/mL: [5]; [37] | [5]; [38] | [6]; [39] | [6]; Enterococcus faecalis, E. faecalis Vancomycin-resistant (UNT-039), read-out: MIC | [28]; [43] | [28]; Gram-negative
> 32 µg/mL: [2]; [33] | [2]; [34] | [3]; [35] | [3]; Gram-negative | [4]; Gram-negative | [4]; [36] | [7]; Gram-negative | [7]; [40] | [10]; [44] | [10]; Gram-negative | [11]; E. coli TEM-1, Gram-negative | [11]; Escherichia coli, TEM1 | [13]; Gram-negative | [13]; [45] | [16]; [49] | [16]; [50] | [17]; [51] | [17]; Gram-negative | [19]; [54] | [19]; [55] | [27]; Gram-negative | [27]; [63]
0.0625 µg/mL: [20]; [56] | [20]; Staphylococcus aureus, ATCC29213, S. aureus ATCC 29213 (MP-12), read-out: MIC
16 µg/mL: [25]; [60] | [25]; [61]

CC[C@H]1OC(=O)[C@@](C)(F)C(=O)[C@H](C)[C@@H](OC2OC(C)CC(N(C)C)C2O)[C@](C)(OC)C[C@@H](C)C(=O)[C@H](C)[C@H]2N(CCCCn3cc(-c4cccc(N)c4)nn3)C(=O)O[C@]12C (stereo partly shown) [Solithro, solithromycin, reference compound]
> 32 µg/mL: [2]; [33] | [2]; [34] | [3]; [35] | [3]; Gram-negative | [4]; Gram-negative | [4]; [36] | [7]; Gram-negative | [7]; [40] | [10]; [44] | [10]; Gram-negative | [13]; Gram-negative | [13]; [45] | [15]; [47] | [15]; [48] | [16]; [49] | [16]; [50] | [17]; [51] | [17]; Gram-negative | [19]; [54] | [19]; [55] | [27]; Gram-negative | [27]; [63]
8 µg/mL: [5]; [37] | [5]; [38] | [9]; [43] | [9]; Gram-negative | [25]; [60] | [25]; [61]
0.0625 µg/mL: [29]; [64]
1 µg/mL: [18]; [52] | [18]; [53]
2 µg/mL: [8]; [41] | [8]; [42]
16 µg/mL: [21]; E. coli ATCC 25922 (MP-4)
32 µg/mL: [6]; [39] | [11]; E. coli TEM-1, Gram-negative | [11]; Escherichia coli, TEM1 | [21]; [57] | [21]; [58]
0.25 µg/mL: [12]; S. pneumoniae erm B + mef A genotype, Gram-positive | [12]; Streptococcus pneumoniae
0.125 µg/mL: [14]; Gram-positive | [14]; Streptococcus pneumoniae, second strain (MP-627 UNT-039) | [18]; Staphylococcus aureus, S. aureus MRSA: USA300 (MP-549, msr(a)) | [20]; [56] | [20]; Staphylococcus aureus, ATCC29213
< 0.015 µg/mL: [14]; [46]
< 0.0312 µg/mL: [1]; [31] | [1]; [32] | [23] | [24]; [59] | [26]; [62]
0.03 µg/mL: [1]; E. faecalis ATCC 29212 (MP-24)
4 µg/mL: [5]; K. pneumoniae ATCC 10031 (MP-14) | [30] | [22]; Gram-negative | [22]; [42] | [28]; [43] | [28]; Gram-negative
